Measured values: PubChem BioAssay (NCI)
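Each compound was tested at five concentrations against cells in 96-well plates for 48 hours. At the TGI there is no net growth.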

Assays:
Assay in all cases: inhibition of tumour cell growth, NCI panel, 48 h
A498 renal = tested on: A498 renal
BT-549 breast = tested on: BT-549 breast
HCC-2998 colon = tested on: HCC-2998 colon
HOP-62 NSCLC = tested on: HOP-62 NSCLC
HT29 colon = tested on: HT29 colon
K-562 leukemia = tested on: K-562 leukemia
NCI-H460 lung = tested on: NCI-H460 lung
SF-268 CNS = tested on: SF-268 CNS
SF-295 CNS = tested on: SF-295 CNS
SK-MEL-28 melanoma = tested on: SK-MEL-28 melanoma
SK-MEL-5 melanoma = tested on: SK-MEL-5 melanoma
T-47D breast = tested on: T-47D breast
EKVX NSCLC = tested on: EKVX NSCLC
MALME-3M melanoma = tested on: MALME-3M melanoma
NCI/ADR-RES ovarian = tested on: NCI/ADR-RES ovarian
OVCAR-8 ovarian = tested on: OVCAR-8 ovarian

Structure (SMILES)	TGI (A498 renal) [µM]	TGI (BT-549 breast) [µM]	TGI (HCC-2998 colon) [µM]	TGI (HOP-62 NSCLC) [µM]	TGI (HT29 colon) [µM]	TGI (K-562 leukemia) [µM]	TGI (NCI-H460 lung) [µM]	TGI (SF-268 CNS) [µM]	TGI (SF-295 CNS) [µM]	TGI (SK-MEL-28 melanoma) [µM]	TGI (SK-MEL-5 melanoma) [µM]	TGI (T-47D breast) [µM]	TGI (EKVX NSCLC) [µM]	TGI (MALME-3M melanoma) [µM]	TGI (NCI/ADR-RES ovarian) [µM]	TGI (OVCAR-8 ovarian) [µM]
O=C(CCCC(=O)N1CC(CCl)c2ccc([N+](=O)[O-])cc21)N1CC(CCl)c2ccc([N+](=O)[O-])cc21 (stereo unspecified)	> 100	> 100	> 100	> 100	> 100	> 100	> 100	> 100	> 100	> 100	> 100	> 100				
Cc1nc2c(Br)cc(Br)cc2c(=O)n1-c1ccccc1N	> 100	87.6	> 100	> 100	65.4	> 100	> 100	> 100	> 100	> 100	39		> 100	> 100	> 100	> 100
Cc1ccc(-n2c(C)nc3c2C(=O)c2ccccc2C3=O)cc1			> 100	> 100	> 100	> 100	19.5	> 100	> 100	> 100	> 100		> 100	51.5		> 100
C=C(Br)CN(C#N)CC(=C)Br	> 100		> 100	> 100	> 100	> 100	> 100	> 100	> 100	> 100	> 100	> 100	> 100	> 100	> 100	> 100
Cc1nnc2c3c(-c4ccccc4)c(-c4ccccc4)oc3nc(N(C)C)n12	> 100		60.5		> 100	> 100		> 100	> 100	> 100	> 100	> 100	> 100		> 100	> 100
CCCCCCCCOCC1S(=O)(=O)OCCOS1(=O)=O	> 100		> 100	> 100	> 100	> 100	> 100	> 100	> 100	> 100	> 100	> 100	> 100	> 100	> 100	> 100
C=C1CCCCCCCCCCC1S(=O)c1ccccc1 (stereo unspecified)	> 100		> 100	> 100	> 100	82.6	> 100	95.8	> 100	> 100	> 100	> 100	> 100	> 100	> 100	
CO[P@]1(=O)O[C@@H](c2ccccc2)[C@H](O)[C@]1(O)c1ccccc1	> 100	> 100			> 100	> 100	> 100	> 100	> 100	> 100	> 100	> 100	> 100	> 100	> 100	> 100
Clc1ccc(OCc2nnc(CCCCCCCCc3nnc(COc4ccc(Cl)cc4Cl)o3)o2)c(Cl)c1	> 100	> 100	> 100		> 100	> 100	> 100	> 100	> 100	> 100	> 100		> 100	> 100	> 100	
COC(=O)c1ccc(OCc2ccc3oc(=O)c(-c4ccccc4)nc3c2)cc1			> 100	> 100	> 100	> 100	> 100	> 100	> 100	> 100	> 100		> 100	> 100		> 100
CC1=C(N2CC2)C(=O)c2nc3n(c2C1=O)CCC3O (stereo unspecified)	0.521	0.0377	0.328	0.516	3.37	5.06	0.324	0.629	0.512	0.872	0.0562	2.04	1.13	0.33		0.688
CCN(CC)C(=O)CCCCCCCCC1CO1 (stereo unspecified)	> 100			> 100	> 100	> 100	> 100	> 100	> 100	> 100	> 100		> 100	> 100	> 100	> 100
S=C1CC(c2ccc(Cl)cc2)Sc2ccccc2N1 (stereo unspecified)		> 100		35.1	> 100	> 10	> 100	79.3	> 100	> 100	> 100	> 100	> 100	> 100	> 100	> 100
